≈ marks a conversion by molar mass, not a printed value.
System: Escherichia coli
Experiment: minimum inhibitory concentration (MIC)
Protocol: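 Broth microdilution MIC (Sensititre BOPO7F bovine plate, CLSI methods) of 19 antimicrobials against field isolates of P. multocida, M. haemolytica, H. somni (deep nasopharyngeal swabs) and E. coli, Enterococcus spp. (rectal swabs) from weaned dairy heifers. Incubation 16-24 h at 35 C. MIC is the lowest concentration preventing visible growth. Values with <= or > lie at the tested range limits. Trimethoprim-sulfamethoxazole is given as the trimethoprim component of a 1:19 mixture.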

CC[C@H]1OC(=O)C[C@@H](O)[C@H](C)[C@@H](O[C@@H]2O[C@H](C)[C@@H](O)[C@H](N(C)C)[C@H]2O)[C@@H](CCN2C[C@H](C)C[C@H](C)C2)C[C@@H](C)C(=O)/C=C/C(C)=C/[C@@H]1CO[C@@H]1O[C@H](C)[C@@H](O)[C@@H](OC)[C@H]1OC [Tilmicosin]
Settings	minimum inhibitory concentration [µg/mL]
isolate (source animal id): 8	> 16
isolate (source animal id): 9	> 16
isolate (source animal id): 10	> 16
isolate (source animal id): 11	> 16
isolate (source animal id): 12	> 16
isolate (source animal id): 13	> 16
isolate (source animal id): 14	> 16
isolate (source animal id): 15	> 16
isolate (source animal id): 16	> 16
isolate (source animal id): 98	> 16
isolate (source animal id): 99	> 16
isolate (source animal id): 100	> 16
isolate (source animal id): 101	> 16
isolate (source animal id): 102	> 16
isolate (source animal id): 103	> 16
isolate (source animal id): 104	> 16
isolate (source animal id): 105	> 16
isolate (source animal id): 106	> 16
isolate (source animal id): 107	> 16
isolate (source animal id): 108	> 16
isolate (source animal id): 109	> 16
isolate (source animal id): 110	> 16
isolate (source animal id): 111	> 16
isolate (source animal id): 112	> 16
isolate (source animal id): 113	> 16
isolate (source animal id): 114	> 16
isolate (source animal id): 115	> 16
isolate (source animal id): 116	> 16
isolate (source animal id): 117	> 16
isolate (source animal id): 118	> 16
isolate (source animal id): 119	> 16
isolate (source animal id): 120	> 16
isolate (source animal id): 121	> 16
isolate (source animal id): 122	> 16
isolate (source animal id): 123	> 16
isolate (source animal id): 124	> 16
isolate (source animal id): 125	16 (≈ 18.4 µM)
isolate (source animal id): 126	> 16
isolate (source animal id): 127	> 16
isolate (source animal id): 128	> 16
isolate (source animal id): 129	> 16
isolate (source animal id): 130	> 16
isolate (source animal id): 131	> 16
isolate (source animal id): 132	> 16
isolate (source animal id): 133	> 16
isolate (source animal id): 134	> 16
isolate (source animal id): 135	> 16
isolate (source animal id): 136	> 16
isolate (source animal id): 137	> 16
isolate (source animal id): 138	> 16
isolate (source animal id): 139	> 16
isolate (source animal id): 140	> 16
isolate (source animal id): 141	> 16
isolate (source animal id): 142	> 16
isolate (source animal id): 143	> 16
isolate (source animal id): 144	> 16
isolate (source animal id): 145	> 16
isolate (source animal id): 146	> 16
isolate (source animal id): 147	> 16
isolate (source animal id): 148	> 16
isolate (source animal id): 149	> 16
isolate (source animal id): 150	> 16
isolate (source animal id): 151	> 16
isolate (source animal id): 152	> 16
isolate (source animal id): 153	> 16
isolate (source animal id): 154	> 16
isolate (source animal id): 155	> 16
isolate (source animal id): 156	> 16
isolate (source animal id): 157	> 16
isolate (source animal id): 158	> 16
isolate (source animal id): 159	> 16
isolate (source animal id): 160	> 16
isolate (source animal id): 161	> 16
isolate (source animal id): 162	> 16
isolate (source animal id): 163	> 16
isolate (source animal id): 164	> 16
isolate (source animal id): 165	> 16
isolate (source animal id): 166	> 16
isolate (source animal id): 167	> 16
isolate (source animal id): 168	> 16
isolate (source animal id): 169	> 16
isolate (source animal id): 170	> 16
isolate (source animal id): 171	> 16
isolate (source animal id): 172	> 16
isolate (source animal id): 173	> 16
isolate (source animal id): 174	> 16
isolate (source animal id): 175	> 16
isolate (source animal id): 176	> 16
isolate (source animal id): 177	> 16
isolate (source animal id): 178	> 16
isolate (source animal id): 179	> 16
isolate (source animal id): 180	> 16
isolate (source animal id): 181	> 16
isolate (source animal id): 182	> 16
isolate (source animal id): 183	> 16
isolate (source animal id): 184	> 16
isolate (source animal id): 185	> 16
isolate (source animal id): 186	> 16
isolate (source animal id): 187	> 16
isolate (source animal id): 188	> 16

CCCNC[C@]1(O)[C@H](C)O[C@@H](O[C@H]2[C@H](C)[C@@H](O[C@@H]3O[C@H](C)C[C@H](N(C)C)[C@H]3O)[C@](C)(O)C[C@@H](C)CN[C@H](C)[C@@H](O)[C@](C)(O)[C@@H](CC)OC(=O)[C@@H]2C)C[C@@]1(C)OC [Tulathromycin]
Settings	minimum inhibitory concentration [µg/mL]
isolate (source animal id): 8	≤ 8
isolate (source animal id): 9	16 (≈ 19.8 µM)
isolate (source animal id): 10	16 (≈ 19.8 µM)
isolate (source animal id): 11	≤ 8
isolate (source animal id): 12	≤ 8
isolate (source animal id): 13	≤ 8
isolate (source animal id): 14	≤ 8
isolate (source animal id): 15	≤ 8
isolate (source animal id): 16	≤ 8
isolate (source animal id): 98	≤ 8
isolate (source animal id): 99	≤ 8
isolate (source animal id): 100	≤ 8
isolate (source animal id): 101	≤ 8
isolate (source animal id): 102	≤ 8
isolate (source animal id): 103	≤ 8
isolate (source animal id): 104	16 (≈ 19.8 µM)
isolate (source animal id): 105	≤ 8
isolate (source animal id): 106	16 (≈ 19.8 µM)
isolate (source animal id): 107	16 (≈ 19.8 µM)
isolate (source animal id): 108	16 (≈ 19.8 µM)
isolate (source animal id): 109	≤ 8
isolate (source animal id): 110	≤ 8
isolate (source animal id): 111	≤ 8
isolate (source animal id): 112	≤ 8
isolate (source animal id): 113	≤ 8
isolate (source animal id): 114	≤ 8
isolate (source animal id): 115	64 (≈ 79.4 µM)
isolate (source animal id): 116	≤ 8
isolate (source animal id): 117	16 (≈ 19.8 µM)
isolate (source animal id): 118	≤ 8
isolate (source animal id): 119	32 (≈ 39.7 µM)
isolate (source animal id): 120	≤ 8
isolate (source animal id): 121	≤ 8
isolate (source animal id): 122	≤ 8
isolate (source animal id): 123	≤ 8
isolate (source animal id): 124	16 (≈ 19.8 µM)
isolate (source animal id): 125	≤ 8
isolate (source animal id): 126	16 (≈ 19.8 µM)
isolate (source animal id): 127	16 (≈ 19.8 µM)
isolate (source animal id): 128	≤ 8
isolate (source animal id): 129	≤ 8
isolate (source animal id): 130	≤ 8
isolate (source animal id): 131	≤ 8
isolate (source animal id): 132	≤ 8
isolate (source animal id): 133	≤ 8
isolate (source animal id): 134	≤ 8
isolate (source animal id): 135	≤ 8
isolate (source animal id): 136	≤ 8
isolate (source animal id): 137	≤ 8
isolate (source animal id): 138	32 (≈ 39.7 µM)
isolate (source animal id): 139	≤ 8
isolate (source animal id): 140	≤ 8
isolate (source animal id): 141	≤ 8
isolate (source animal id): 142	≤ 8
isolate (source animal id): 143	16 (≈ 19.8 µM)
isolate (source animal id): 144	16 (≈ 19.8 µM)
isolate (source animal id): 145	16 (≈ 19.8 µM)
isolate (source animal id): 146	16 (≈ 19.8 µM)
isolate (source animal id): 147	≤ 8
isolate (source animal id): 148	≤ 8
isolate (source animal id): 149	≤ 8
isolate (source animal id): 150	≤ 8
isolate (source animal id): 151	≤ 8
isolate (source animal id): 152	≤ 8
isolate (source animal id): 153	≤ 8
isolate (source animal id): 154	≤ 8
isolate (source animal id): 155	≤ 8
isolate (source animal id): 156	≤ 8
isolate (source animal id): 157	≤ 8
isolate (source animal id): 158	≤ 8
isolate (source animal id): 159	≤ 8
isolate (source animal id): 160	≤ 8
isolate (source animal id): 161	≤ 8
isolate (source animal id): 162	≤ 8
isolate (source animal id): 163	16 (≈ 19.8 µM)
isolate (source animal id): 164	≤ 8
isolate (source animal id): 165	≤ 8
isolate (source animal id): 166	≤ 8
isolate (source animal id): 167	16 (≈ 19.8 µM)
isolate (source animal id): 168	≤ 8
isolate (source animal id): 169	≤ 8
isolate (source animal id): 170	≤ 8
isolate (source animal id): 171	≤ 8
isolate (source animal id): 172	≤ 8
isolate (source animal id): 173	≤ 8
isolate (source animal id): 174	≤ 8
isolate (source animal id): 175	16 (≈ 19.8 µM)
isolate (source animal id): 176	≤ 8
isolate (source animal id): 177	≤ 8
isolate (source animal id): 178	≤ 8
isolate (source animal id): 179	≤ 8
isolate (source animal id): 180	≤ 8
isolate (source animal id): 181	≤ 8
isolate (source animal id): 182	16 (≈ 19.8 µM)
isolate (source animal id): 183	≤ 8
isolate (source animal id): 184	≤ 8
isolate (source animal id): 185	16 (≈ 19.8 µM)
isolate (source animal id): 186	≤ 8
isolate (source animal id): 187	≤ 8
isolate (source animal id): 188	≤ 8
